Assay results as given in patent publication US20220304997A1, “REBAMIPIDE FOR USE IN PROPHYLAXIS AND TREATMENT OF CANCER” (SQUARE POWER LTD., priority 2019, published 2022).

Tested on: Male CD-1 mice
Experiment: DSS model combined with PhIP treatment (increased intestinal permeability, colitis and colon tumors)
Assay type: in vivo
From the text: To study the effect of rebamipide on increased intestinal permeability, colonic inflammation and cancer development, a DSS model combined with PhIP treatment was employed. Male CD-1 mice, divided into three groups, designated A to C, were used in the study. […] Subsequently, all animals were given inflammatory insult using 2% dextran sodium sulfate (DSS) in drinking water for 7 days, followed by 2-4 weeks of recovery period, during which mice were given untreated water. This cycle was repeated up to four times to induce increased intestinal permeability leading to severe colitis with loss of body weight and bloody diarrhea. Subsequently, majority of animals developed multiple colon tumors. Treatment with DSS (dextran sulfate sodium) induces increased intestinal permeability in mice by binding to medium-chain-length fatty acids present in the colon leading to development of inflammation and colitis. Besides that, the DSS administration leads to a long-term development of dysplasia and even colon cancer in some of the mice treated. PhIP treatment accelerates this process and further increases the incidence of colonic tumors. Another advantage of including PhIP in the protocol is that it allows reduction of the DSS dose in mice, and decreases the mortality from DSS-associated acute colitis. The carcinogenic process of the DSS/PhIP system has a pathological progression from normal intestinal crypts to the formation of foci harboring aberrant crypts with crypt fission and finally to the emergence of microadenomas. These steps recapitulate the sequence of colorectal cancer formation in humans from increased intestinal permeability and inflammation through dysplasia to carcinoma. Rebamipide treatment started four weeks prior to carcinogen administration and continued throughout the study. Groups A and B received rebamipide 50 mg/kg/day and 350 mg/kg/day, respectively. Rebamipide was applied within the standard daily feed or by gavage if needed. The treatment lasted for 20 weeks. […] [table] The observed parameters were as follows: • Number and size of tumors • Histological evaluation of the tumors • Weight loss • Colitis severity assessment • Gut permeability • Cytokines and related markers (IL-6, IL-10, IL-1b, TNFα, iNOS, IL-23p19, MCP 1, MIP 2, CXCL1) • Cell-cell adhesion proteins (Claudin 1, β catenin) • Expression of target genes

[1] = PhIP/DSS-treated mice, in comparison to untreated animals
[2] = groups A and B, rebamipide 50 mg/kg/day and 350 mg/kg/day, 20 weeks, vs untreated control group C, preliminary results

## O=C(NC(Cc1cc(=O)[nH]c2ccccc12)C(=O)O)c1ccc(Cl)cc1 (stereo not drawn) [rebamipide, 2-[(4-chlorobenzoyl)amino]-3-(2-oxo-1H-quinolin-4-yl)propanoic acid]
[1]
  intestinal inflammation: suppresses intestinal inflammation
  onset of the symptoms and markers corresponding to colon cancer: preventing or at least delaying the onset
  permeability of the gastrointestinal mucosa: decrease in permeability
Groups A and B, rebamipide 50 mg/kg/day and 350 mg/kg/day in feed or by gavage, 20 weeks, vs untreated control group C, preliminary results
  recovery from the DSS treatment: recovered faster
[2]
  incidence of tumors at the end of the study: lower incidence
  size of tumors at the end of the study: lower incidence and size of tumors
